Test results published in ChEMBL document CHEMBL5528028, “Discovery of benzopyridone cyanoacetates as new type of potential broad-spectrum antibacterial candidates” (Eur J Med Chem, 2024).

Columns and labels:
Staphylococcus aureus [1] = experiment: Antibacterial activity against Staphylococcus aureus ATCC 25923 assessed growth inhibition by micro broth dilution method; assay type: functional
[2] = AUMC (0 to t) in mouse at 10 mg/kg, iv; assay type: ADME, organism-based; conditions: in vivo
[3] = MRT (0 to infinity) in mouse at 10 mg/kg, po; assay type: ADME, organism-based; conditions: in vivo
[4] = Half life in mouse at 10 mg/kg, iv; assay type: ADME, organism-based; conditions: in vivo
Escherichia coli [5] = experiment: Antibacterial activity against Escherichia coli ATCC 25922 assessed growth inhibition by micro broth dilution method; assay type: functional
Staphylococcus aureus [6] = experiment: Antibacterial activity against Staphylococcus aureus assessed growth inhibition by micro broth dilution method; assay type: functional
[7] = Clearance in mouse at 10 mg/kg, po; assay type: ADME, organism-based; conditions: in vivo
[8] = AUMC (0 to infinity) in mouse at 10 mg/kg, po; assay type: ADME, organism-based; conditions: in vivo
Klebsiella pneumoniae [9] = experiment: Antibacterial activity against Klebsiella pneumonia assessed growth inhibition by micro broth dilution method; assay type: functional
[10] = MRT (0 to t) in mouse at 10 mg/kg, iv; assay type: ADME, organism-based; conditions: in vivo
[11] = Half life in mouse at 10 mg/kg, po; assay type: ADME, organism-based; conditions: in vivo
[12] = AUMC (0 to t) in mouse at 10 mg/kg, po; assay type: ADME, organism-based; conditions: in vivo
Klebsiella pneumoniae [13] = experiment: In vivo anti-infective effect against Klebsiella pneumonia p1-6305014 infected in mouse model assessed as reduction bacterial growth at 15 mg/kg; assay type: functional
Acinetobacter baumannii = experiment: Antibacterial activity against Acinetobacter baumannii assessed growth inhibition by micro broth dilution method; assay type: functional
Pseudomonas aeruginosa [14] = experiment: Antibacterial activity against Pseudomonas aeruginosa assessed growth inhibition by micro broth dilution method; assay type: functional
Klebsiella pneumoniae [15] = experiment: In vivo anti-infective effect against Klebsiella pneumonia p1-6305014 infected in mouse model assessed as reduction bacterial growth at 5 mg/kg; assay type: functional
[16] = Oral bioavailability in mouse at 10 mg/kg; assay type: ADME, organism-based; conditions: in vivo
Klebsiella pneumoniae [17] = experiment: Anti-biofilm activity against Klebsiella pneumonia assessed as relative biofilm clearance rate at 8 times of MIC by crystal violet staining based assay; assay type: functional
[18] = Tmax in mouse at 10 mg/kg, po; assay type: ADME, organism-based; conditions: in vivo
[19] = AUC (0 to infinity) in mouse at 10 mg/kg, po; assay type: ADME, organism-based; conditions: in vivo
Pseudomonas aeruginosa [20] = experiment: Antibacterial activity against Pseudomonas aeruginosa ATCC 27853 assessed growth inhibition by micro broth dilution method; assay type: functional
Escherichia coli [21] = experiment: Antibacterial activity against Escherichia coli assessed growth inhibition by micro broth dilution method; assay type: functional
[22] = AUC (0 to t) in mouse at 10 mg/kg, iv; assay type: ADME, organism-based; conditions: in vivo
Staphylococcus aureus [23] = experiment: Antibacterial activity against Staphylococcus aureus ATCC 29213 assessed growth inhibition by micro broth dilution method; assay type: functional
[24] = AUC (0 to infinity) in mouse at 10 mg/kg, iv; assay type: ADME, organism-based; conditions: in vivo
[25] = Cytotoxicity against human NOK cells assessed as cell viability at 8 ug/ml; assay type: toxicity, cell-based; conditions: nok-si, dose 8 µg/ml
[26] = Thermodynamic solubility of the compound in water; assay type: physicochemical; conditions: read-out: Therm_solubility
Staphylococcus aureus [27] = experiment: Anti-biofilm activity against Staphylococcus aureus ATCC 29213 assessed as relative biofilm clearance rate at 8 times of MIC by crystal violet staining based assay; assay type: functional
[28] = Cmax in mouse at 10 mg/kg, iv; assay type: ADME, organism-based; conditions: in vivo
[29] = MRT (0 to t) in mouse at 10 mg/kg, po; assay type: ADME, organism-based; conditions: in vivo
Erythrocyte = experiment: Hemolytic activity in human RBC incubated measured upto 128 ug/ml; assay type: toxicity, cell-based; conditions: dose < 128 µg/ml
[30] = Apparent volume of distribution in mouse at 10 mg/kg, po; assay type: ADME, organism-based; conditions: in vivo
[31] = Tmax in mouse at 10 mg/kg, iv; assay type: ADME, organism-based; conditions: in vivo
[32] = Cytotoxicity against human FHC cells assessed as cell viability at 8 ug/ml; assay type: toxicity, cell-based; conditions: at 8 µg/mL, read-out: Activity
Enterococcus faecalis = experiment: Antibacterial activity against Enterococcus faecalis assessed growth inhibition by micro broth dilution method; assay type: functional
[33] = Cmax in mouse at 10 mg/kg, po; assay type: ADME, organism-based; conditions: in vivo
Staphylococcus aureus [34] = experiment: Antibacterial activity against methicillin-resistant Staphylococcus aureus assessed growth inhibition by micro broth dilution method; assay type: functional
[35] = AUMC (0 to infinity) in mouse at 10 mg/kg, iv; assay type: ADME, organism-based; conditions: in vivo
[36] = Initial plasma concentration in mouse at 10 mg/kg, iv; assay type: ADME, organism-based; conditions: in vivo
[37] = Volume of distribution at steady state in mouse at 10 mg/kg, iv; assay type: ADME, organism-based; conditions: in vivo
[38] = AUC (0 to t) in mouse at 10 mg/kg, po; assay type: ADME, organism-based; conditions: in vivo
[39] = Clearance in mouse at 10 mg/kg, iv; assay type: ADME, organism-based; conditions: in vivo
[40] = MRT (0 to infinity) in mouse at 10 mg/kg, iv; assay type: ADME, organism-based; conditions: in vivo

SMILES: CCCCCCCCn1cc(C(=O)OCC)c(=O)c2cc(F)c([C-](C#N)C(=O)OCC)cc21.[Na+] (stereo not drawn)
- MIC (Staphylococcus aureus [1]): 0.25 µg/mL
- AUMCt [2]: 13.3 hr.hr.ng/ml
- MRT [3]: 250 min
- half-life [4]: 12 min
- MIC (Escherichia coli [5]): 0.25 µg/mL
- MIC (Staphylococcus aureus [6]): 16 µg/mL
- CL/F [7]: 698 mL/min/kg
- AUMC [8]: 1035 hr.hr.ng/ml
- MIC (Klebsiella pneumoniae [9]): 0.25 µg/mL
- MRT last [10]: 9 min
- half-life [11]: 133 min
- AUMCt [12]: 523 hr.hr.ng/ml
- Activity (Klebsiella pneumoniae [13]): 4 log10CFU
- MIC (Acinetobacter baumannii): 0.25 µg/mL
- MIC (Pseudomonas aeruginosa [14]): 0.5 µg/mL
- Activity (Klebsiella pneumoniae [15]): 1.5 log10CFU
- F [16]: 26.6%
- Activity (Klebsiella pneumoniae [17]): 70%
- Tmax [18]: 30 min
- AUC [19]: 241 ng·h/mL
- MIC (Pseudomonas aeruginosa [20]): 0.5 µg/mL
- MIC (Escherichia coli [21]): 0.25 µg/mL
- AUC(0-t) [22]: 89.3 ng·h/mL
- MIC (Staphylococcus aureus [23]): 0.25 µg/mL
- AUC [24]: 90.6 ng·h/mL
- Activity [25]: Non-Toxic
- solubility thermodynamic [26]: 27.5 µg/mL
- Activity (Staphylococcus aureus [27]): 70%
- Cmax [28]: 549 ng/mL
- MRT last [29]: 161 min
- Activity (Erythrocyte): Non-Toxic
- Vz [30]: 133.561 L/kg
- Tmax [31]: 1.98 min
- viability at 8 ug/ml [32]: 70%
- MIC (Enterococcus faecalis): 4 µg/mL
- Cmax [33]: 89 ng/mL
- MIC (Staphylococcus aureus [34]): 8 µg/mL
- AUMC [35]: 15 hr.hr.ng/ml
- C0 [36]: 1046 ng/mL
- Vdss [37]: 1.976 L/kg
- AUC(0-t) [38]: 196 ng·h/mL
- CL [39]: 191.07 mL/min/kg
- MRT inf [40]: 10.2 min
